From publication PMC5109658, “Antibacterial and cytotoxic cytochalasins from the endophytic fungus Phomopsis sp. harbored in Garcinia kola (Heckel) nut” (BMC Complementary and Alternative Medicine, 2016)
Values after ≈ are worked out from the molar mass of the structure shown. Where two headings read alike, the source gives them in different places.

Columns and labels:
[1] = test system: S. aureus ATCC 25923; assay: Broth microdilution MIC/MBC; assay type: cell-based, Staphylococcus aureus; conditions: for MBC/MIC / MBC / MIC: S. aureus ATCC 25923; for MBC / MIC: Staphylococcus aureus, ATCC25923; for MBC: 99.9% reduction in CFU after 24 h; for MIC: 24 h at 37 °C
Method: (§1) A total of six bacterial strains were tested for their susceptibility to compounds and these strains were taken from our laboratory collection (kindly provided by Dr. T. Ramamurthy, NICED, Kolkata). Among the clinical strains of Vibrio cholerae used in this study, strains NB2 and SG24 and CO6 belonged to O1 and O139 serotypes, respectively. […]. The other strains used in this study were V. cholerae non-O1, non-O139 (strain PC2); […]. The American Type Culture Collection (ATCC) strain, Staphylococcus aureus ATCC 25923, was used for quality control. The bacterial strains were maintained on agar slant at 4 °C and subcultured on a fresh appropriate agar plates 24 h prior to any antibacterial test. The Mueller Hinton Agar (MHA) was used for the activation of bacteria. The Mueller Hinton Broth (MHB) and nutrient agar (Hi-Media) were used for the MIC and MBC determinations respectively.
(§2) Suspensions of bacteria were prepared in MHB from cells arrested during their logarithmic phase growth (4 h) on MHB at 37 °C. The turbidity of the microbial suspension was read spectrophotometrically at 600 nm and adjusted to an OD of 0.1 with MHB, which is equivalent to 1 × 10^8 CFU/mL. From this prepared solution, other dilutions were made with MHB to yield 1x10^6 CFU/mL.
(§3) MIC and MBC of compounds 1–3 were assessed using the broth microdilution method recommended by the National Committee for Clinical Laboratory Standards with slight modifications. Each test sample was dissolved in dimethylsulfoxide (DMSO) to give a stock solution. The 96-well round bottom sterile plates were prepared by dispensing 180 μL of the inoculated broth (1x10^6 CFU/mL) into each well. A 20 μL aliquot of the stock solution of compound was added. The concentrations of sample tested were 0.125, 0.25, 0.50, 1, 2, 4, 8, 16, 32, 64, 128, 256 and 512 μg/mL. […] Dilutions of tetracycline and ampicillin served as positive controls, while broth with 20 μL of DMSO was used as negative control. The ATCC strain Staphylococcus aureus ATCC 25923 was included for quality assurance purposes. Plates were covered and incubated for 24 h at 37 °C. After incubation, minimum inhibitory concentrations (MIC) were read visually; all wells were plated to nutrient agar (Hi-Media) and incubated. The minimal bactericidal concentration (MBC) was defined as a 99.9% reduction in CFU from the starting inoculums after 24 h incubation interval.

[2] = test system: V. cholerae CO6; assay: Broth microdilution MIC/MBC; assay type: cell-based, Vibrio cholerae; conditions: for MBC/MIC / MBC / MIC: V. cholerae CO6; for MBC / MIC: Vibrio cholerae; for MBC: 99.9% reduction in CFU after 24 h; for MIC: 24 h at 37 °C
Method: as §1, §2, §3

[3] = test system: V. cholerae SG24; assay: Broth microdilution MIC/MBC; assay type: cell-based, Vibrio cholerae; conditions: for MBC / MIC: Vibrio cholerae; for MBC: 99.9% reduction in CFU after 24 h; for MIC: 24 h at 37 °C
Method: as §1, §2, §3

[4] = test system: V. cholerae NB2; assay: Broth microdilution MIC/MBC; assay type: cell-based, Vibrio cholerae; conditions: for MBC/MIC / MBC / MIC: V. cholerae NB2; for MBC: 99.9% reduction in CFU after 24 h; for MIC: 24 h at 37 °C
Method: as §1, §2, §3

[5] = test system: V. cholerae PC2; assay: Broth microdilution MIC/MBC; assay type: cell-based, Vibrio cholerae; conditions: V. cholerae PC2; for MBC: 99.9% reduction in CFU after 24 h; for MIC: 24 h at 37 °C
Method: as §1, §2, §3

[6] = test system: S. flexneri SDINT; assay: Broth microdilution MIC/MBC; assay type: cell-based, Shigella flexneri; conditions: for MBC/MIC / MBC / MIC: S. flexneri SDINT; for MBC: 99.9% reduction in CFU after 24 h; for MIC: 24 h at 37 °C
Method: as §1, §2, §3

[7] = Hemolytic assay; assay type: cell-based; conditions: male, 1% human red blood cell suspension, 512 μg/mL (highest concentration tested), 1% human red blood cells, PBS pH 7.4, 37 °C
Method: Whole blood (10 mL) from a healthy person was collected into a conical tube containing heparin as an anticoagulant. Erythrocytes were harvested by centrifugation at room temperature for 10 min at 1,000 × g and were washed three times in PBS solution. The top layer (plasma) and the next, milky layer (buffy coat with a layer of platelets on top of it) were then carefully aspirated and discarded. The cell pellet was resuspended in 10 mL of PBS solution and mixed by gentle aspiration with a Pasteur pipette. This cell suspension was used immediately.
For the normal human red blood cells, which were in suspension, the cytotoxicity was evaluated as previously described. Compounds 1–3, at concentrations ranging from 32 to 512 μg/mL, were incubated with an equal volume of 1% human red blood cells in phosphate buffered saline (10 mM PBS, pH 7.4) at 37 °C for 1 h. Tetracycline was tested simultaneously. Non-hemolytic and 100% hemolytic controls were the buffer alone and the buffer containing 1% Triton X-100, respectively. Cell lysis was monitored by measuring the release of hemoglobin at 595 nm with a spectrophotometer (Thermo Scientific, USA). Percent hemolysis was calculated as follows: [(A595 of sample treated with compound - A595 of sample treated with buffer)/(A595 of sample treated with Triton X-100 – A595 of sample treated with buffer)] x 100.

[8] = test system: HeLa cells; assay: MTT cytotoxicity assay; assay type: cell-based, Human; conditions: SI = LC50 on Vero cells / LC50 on HeLa cells
Method: (§4) HeLa (Human cervical cancer cell line, ATCC No. CCL-2) and Vero cells (African green monkey kidney cells, normal non-cancer cells, ATCC No. CCL-81), obtained from the American Type Culture Collection (ATCC) were used in this study. Cytotoxic activity was determined using the 3-(4,5-dimethylthiazol-2-yl)-2,5-diphenyltetrazolium bromide (MTT, Sigma, USA) assay reported by Mosmann for the HeLa and Vero cells. This cell viability assay is based on living cell‘s property to transform the MTT dye tetrazolium ring into a purple-colored formazan structure due to the action of mitochondrial and other dehydrogenases inside the cell. The color intensity yielded by the cell population is directly proportional to the number of viable cells, and one can quantify the absorbance measurements using mathematical parameters. Each test sample was dissolved in dimethylsulfoxide (DMSO) to give a stock solution. Compounds 1–3 were prepared from the stock solutions by serial dilution in RPMI 1640 to give a volume of 100 μL in each well of a microtiter plate (96-well). Each well was filled with 100 μL of cells at 2 × 10^5 cells/mL. The assay for each concentration of compound was performed in triplicates and the culture plates were kept at 37 °C with 5% (v/v) CO2 for 24 h. After removing the supernatant of each well and washing twice by PBS, 20 μL of MTT solution (5 mg/mL in PBS) and 100 μL of medium were then introduced. After 4 h of incubation, 100 μL of DMSO were added to each well to dissolve the formazan crystals and the absorbance values at 490 nm were measured with a microplate reader (Bio-RAD 680, USA). The relative cell viability (%) was expressed as a relative percentage of treated cells to the untreated control cells (TC/UC × 100). The rate of cell inhibition was calculated using the following formula: inhibition rate = [1- (ODtest/ODnegative control)] × 100%. The LC50 values were calculated as the concentration of test sample resulting in a 50% reduction of absorbance compared to untreated cells. Cells treated with 5-fluorouridine + RPMI 1640 served as positive control while cells left untreated + 1% (v/v) DMSO + RPMI 1640 were used as negative control.

[9] = MTT cytotoxicity assay; assay type: cell-based, Human; conditions: human, HeLa cells; MTT, 24 h, mean ± SD; read-out: Cytotoxicty (LC50) HeLa cells
Method: as §4

[10] = test system: studied microorganisms (six bacterial strains); assay: Antibacterial spectrum over the six tested strains (broth microdilution); assay type: cell-based; conditions: out of 6 strains; concentrations up to 512 μg/mL
Method: as §1, §3

[11] = MTT cytotoxicity assay; assay type: cell-based; conditions: African green monkey, Vero cells, normal non-cancer cells, mean ± SD, read-out: Cytotoxicty (LC50) Vero cells
Method: as §4

[12] = Shigella flexneri, read-out: MIC

SMILES | MBC/MIC [1] | MBC [1] [µg/mL] | MIC [1] [µg/mL] | MBC/MIC [2] | MBC [2] [µg/mL] | MIC [2] [µg/mL] | MBC/MIC [3] | MBC [3] [µg/mL] | MIC [3] [µg/mL] | MBC/MIC [4] | MBC ([4]; Vibrio cholerae) [µg/mL] | MIC ([4]; Vibrio cholerae, read-out: MIC) [µg/mL] | MBC ([5]; Vibrio cholerae) [µg/mL] | MIC ([5]; Vibrio cholerae, read-out: MIC) [µg/mL] | MBC/MIC [6] | MBC ([6]; Shigella flexneri) [µg/mL] | MIC [6, 12] [µg/mL] | hemolysis at 1 h, 512 μg/mL [7] [%] | Selectivity Index HeLa cells [8] | CC50 at 24 h [9] [µg/mL] | other results
CN(C)[C@@H]1C(O)=C(C(N)=O)C(=O)[C@@]2(O)C(O)=C3C(=O)c4c(O)cccc4[C@@](C)(O)[C@H]3C[C@@H]12 [Tetracycline, reference compound] | 2 | 32 (≈ 72 µM) | 16 (≈ 36 µM) | 4 | 8 (≈ 18 µM) | 2 (≈ 4.5 µM) | 2 | 1 (≈ 2.25 µM) | 0.5 (≈ 1.13 µM) | 4 | 2 (≈ 4.5 µM) | 0.5 (≈ 1.13 µM) | 1 (≈ 2.25 µM) | 0.5 (≈ 1.13 µM) | 2 | 32 (≈ 72 µM) | 16 (≈ 36 µM) | < 10 | – | – | MBC/MIC [5]: 2
C=C1[C@@H](C)C2[C@H](Cc3ccccc3)NC(=O)[C@]23[C@H](O)/C=C/[C@](C)(OC)C[C@@H](C)C/C=C/[C@@H]3[C@@H]1O (some centres unmarked) [Compound 1, 18-metoxycytochalasin J] | 1 | 128 (≈ 275 µM) | 128 (≈ 275 µM) | 1 | 512 (≈ 1100 µM) | 512 (≈ 1100 µM) | – | > 512 | > 512 | 1 | 512 (≈ 1100 µM) | 512 (≈ 1100 µM) | > 512 | > 512 | 1 | 128 (≈ 275 µM) | 128 (≈ 275 µM) | < 10 | 11.37 | 8.18 ± 0.92 (≈ 17.6 µM) | Selectivity Index S. aureus ATCC 25923 ([1]; SI = LC50 on Vero cells / MIC): 0.72; Selectivity Index V. cholerae CO6 ([2]; SI = LC50 on Vero cells / MIC): 0.18; Selectivity Index V. cholerae NB2 ([4]; SI = LC50 on Vero cells / MIC): 0.18; share of the studied microorganisms on which inhibitory effects were noted [10]: 66.66%; Selectivity Index S. flexneri SDINT ([6]; SI = LC50 on Vero cells / MIC): 0.72; CC50 at 24 h [11]: 93 ± 2.54 µg/mL (≈ 200 µM)
CC1(C)S[C@@H]2[C@H](NC(=O)[C@H](N)c3ccccc3)C(=O)N2[C@H]1C(=O)O [Ampicillin, reference compound] | 1 | 16 (≈ 45.8 µM) | 16 (≈ 45.8 µM) | 1 | 16 (≈ 45.8 µM) | 16 (≈ 45.8 µM) | 1 | 16 (≈ 45.8 µM) | 16 (≈ 45.8 µM) | – | > 512 | > 512 | > 512 | > 512 | – | > 512 | > 512 | – | – | – | MIC [4]: >512 µg/mL; MIC [5]: >512 µg/mL; MIC [6]: >512 µg/mL
O=c1[nH]c(=O)n([C@@H]2O[C@H](CO)[C@@H](O)[C@H]2O)cc1F [Compound 5-FU, 5-Fluorouridine, reference compound] | – | – | – | – | – | – | – | – | – | – | – | – | – | – | – | – | – | – | 18.52 | 0.25 ± 0.05 (≈ 0.953 µM) | CC50 at 24 h [11]: 4.63 ± 0.17 µg/mL (≈ 17.7 µM)
